Reference: PubChem BioAssay (NCI)
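In this assay, cells in 96-well plates receive the compound at five concentrations for 48 hours. Endpoints are linearly interpolated between the surrounding concentrations. GI50 = concentration required for 50% inhibition of growth. The concentration for full growth arrest is given as TGI.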

Columns and labels:
Assay in all cases: growth of human tumour cells (NCI), 48 h
COLO 205 colon = system: COLO 205 colon
IGROV1 ovarian = system: IGROV1 ovarian
A498 renal = system: A498 renal
MDA-MB-435 = system: MDA-MB-435
OVCAR-8 ovarian = system: OVCAR-8 ovarian
HCT-116 colon = system: HCT-116 colon
HCC-2998 colon = system: HCC-2998 colon
CCRF-CEM leukemia = system: CCRF-CEM leukemia
SN12C renal = system: SN12C renal
DU-145 prostate = system: DU-145 prostate

Compound | TGI (COLO 205 colon) [µM] | TGI (IGROV1 ovarian) [µM] | TGI (A498 renal) [µM] | TGI (MDA-MB-435) [µM] | TGI (OVCAR-8 ovarian) [µM] | TGI (HCT-116 colon) [µM] | TGI (HCC-2998 colon) [µM] | TGI (CCRF-CEM leukemia) [µM] | TGI (SN12C renal) [µM] | TGI (DU-145 prostate) [µM] | GI50 (COLO 205 colon) [nM] | GI50 (IGROV1 ovarian) [nM] | GI50 (HCC-2998 colon) [nM] | GI50 (CCRF-CEM leukemia) [nM] | GI50 (SN12C renal) [nM]
O=C(O)C(=O)/C=C(\O)c1ccc(Br)cc1 | > 100 | > 100 | > 100 | > 100 | > 100 | > 100 | > 100 | > 100 | > 100 | > 100 |  |  |  |  | 
Cc1nc2ccccc2c(/C=C/c2ccc(Cl)cc2)c1C(=O)/C=C/c1ccccc1 | 4.62 | 3.68 |  |  |  |  | 3.3 | > 100 | 3.36 |  | 1980 | 1240 | 1660 | 1320 | 1670
CCOc1ccc2c(c1)c(=O)c1c(NCCN(CC)CC)ccc3nnn2c31 | > 54 | 30.3 | > 100 | 32.5 | 65.8 | > 44.9 | > 50.4 | 25.7 | > 100 | 54.4 |  |  |  |  | 
[N-]=[N+]=C(C(=O)N1CCCC1=O)S(=O)(=O)c1ccccc1 | > 100 | > 100 |  | > 100 | > 100 | > 100 | > 100 | > 100 | > 100 | > 100 |  |  |  |  | 
S=c1[nH]c2ccc(I)cc2c(=S)n1Cc1ccccc1 | 25.2 | 27.6 | 55.4 | > 100 | 53.6 | 13.2 |  | 6.06 | 13.4 | 11.9 |  |  |  |  | 
NC1CC=C(COC(=O)C(O)(c2ccccc2)C2CC2)CC1 (centres undefined) | > 100 | > 100 |  |  | > 100 | > 100 | > 100 |  | > 100 | > 100 |  |  |  |  | 
O=C(CSc1nc2ccccc2c(=O)n1-c1ccccc1)N=Nc1c(O)[nH]c2ccc(F)cc12 | 5.73 |  |  | > 100 |  | 4.46 | 4.75 | 5.04 |  | 4.17 |  |  |  |  | 
CC1(C)N=C(c2ccccn2)C(c2ccccn2)=NC1(C)C | > 100 | > 100 | > 100 |  | > 100 | > 100 | > 100 | > 100 | > 100 |  |  |  |  |  | 
CCOC(=O)C(NC(=O)OC(C)(C)C)C(=O)OCC | > 100 | > 100 |  | > 100 | > 100 | > 100 | > 100 | > 100 | > 100 | > 100 |  |  |  |  | 
NC(N)=NCCCC(NC(=O)OCCCCn1ccc(N)nc1=O)C(=O)O (centres undefined) | > 100 | > 100 | > 100 | > 100 |  | > 100 | > 100 | > 100 | > 100 | > 100 |  |  |  |  | 
O=C(O)CCC(NC(=O)c1ccc(Nc2nc3cc(C(F)(F)F)ccc3nc2C(=O)O)cc1)C(=O)O (centres undefined) | > 100 | > 100 | > 100 | > 100 | > 100 | > 100 | > 100 | > 100 |  | > 100 |  |  |  |  | 
CCC(NC1=NCCO1)c1cccs1 (centres undefined) | 34.9 | 39.3 | 42.5 | 27.6 | 30.3 | 27.1 | 28.9 | 65.4 |  | 28.5 |  |  |  |  | 
CCCCNC(=O)/N=C/c1c(O)c2ccccc2oc1=O | > 100 | > 100 |  |  | > 100 | > 100 | > 100 |  | > 100 |  |  |  |  |  | 
CC(=O)Nc1ccccc1NC1CC(C)N(c2ccccc2)N1C(C)=O (centres undefined) | > 10 | > 10 |  | > 10 | > 10 |  | > 10 | > 10 | > 10 | > 10 |  |  |  |  | 
O=c1oc2ccccc2c(O)c1C(C/C(CCN1CCCC1)=N\Nc1ccccc1)c1ccccc1 (centres undefined) |  | > 100 | > 100 |  | > 100 | > 100 | > 100 | 69.5 | > 100 |  |  |  |  |  | 
Cc1ccc([N+](=O)[O-])c2c(NCC(O)CO)ccnc12 (centres undefined) | 75.1 | > 100 |  | > 100 | > 100 | > 100 | > 100 | > 100 | > 100 | > 100 |  |  |  |  | 
Oc1ccc(Cl)cc1C1=NC(/N=C\c2ccccc2)=NC(c2ccccc2)C1 (centres undefined) | > 100 | > 100 | > 100 | > 100 | > 100 | > 100 |  | > 100 | > 100 | > 100 |  |  |  |  | 
COc1cc(Br)c(CC2C3=C(CCN2C(=O)C2CCC2)CC(=O)CC3)cc1O (centres undefined) | 40 | > 100 |  | 35.7 | > 100 | > 100 | 92.9 | 87.6 | > 100 | > 100 |  |  |  |  | 
COc1ccc(Sc2ccccc2N)cc1 | 32.8 | > 100 | > 100 |  | > 100 | > 100 | > 100 | 83.8 | > 100 |  |  |  |  |  | 
Cn1c(O)c(C=Nc2ccccc2Cl)c(=O)n(C)c1=O | > 100 | > 100 | > 100 | > 100 | > 100 | 35.5 | 34.2 | 49 | > 100 |  |  |  |  |  | 
C=CCC(C(=O)Nc1cccc2[nH]cnc12)C(=O)OCC (centres undefined) |  | > 100 | > 100 | > 100 | > 100 | > 100 | > 100 |  | > 100 | > 100 |  |  |  |  | 
C=C1CN(C2=NCCO2)C1 | > 100 | > 100 |  | > 100 | > 100 | > 100 | > 100 | > 100 | > 100 | > 100 |  |  |  |  | 
CN(Cc1cc(Cl)c(Cl)cc1NC(=O)CN)[C@H]1CCCC[C@@H]1N1CCCC1 | 33.9 | > 100 | 41.5 | 32.9 | > 100 | 45.2 | 31.2 | > 100 | > 100 |  |  |  |  |  | 
O=C1NCCS(=O)(=O)N2CCC[C@@H]12 | > 100 | > 100 | > 100 |  | > 100 | > 100 | > 100 | > 100 | > 100 |  |  |  |  |  | 
